Assay results from ChEMBL document CHEMBL5365466, “Discovery of Triazolyl Derivatives of Cucurbitacin B Targeting IGF2BP1 against Non-Small Cell Lung Cancer” (J Med Chem, 2023).

Tests used:
HCT-116 [1] = assay: Antiproliferative activity against human HCT-116 cells assessed as cell growth inhibition at 1 uM incubated for 72 hrs by SRB assay; format: functional
[2] = Antiproliferative activity against human L02 cells assessed as cell growth inhibition at 0.1 uM incubated for 72 hrs by SRB assay; format: toxicity, cell-based
HCT-116 [3] = assay: Antiproliferative activity against human HCT-116 cells assessed as cell growth inhibition incubated for 72 hrs by SRB assay; format: functional, cell-based; details: HCT-116, 72 h
[4] = Antiproliferative activity against human L02 cells assessed as cell growth inhibition incubated for 72 hrs by SRB assay; format: toxicity, cell-based
[5] = Antiproliferative activity against human L02 cells assessed as cell growth inhibition at 1 uM incubated for 72 hrs by SRB assay; format: toxicity, cell-based
[6] = Selectivity index, ratio of IC50 for antiproliferative activity against human L02 cells to IC50 for antiproliferative activity against human HCT-116 cells; format: toxicity, cell-based; details: L02 cells versus HCT-116 cells, read-out: Ratio IC50
HCT-116 [7] = assay: Antiproliferative activity against human HCT-116 cells assessed as cell growth inhibition at 0.1 uM incubated for 72 hrs by SRB assay; format: functional

| SMILES | inhibition at 1 µM (HCT-116 [1]) [%] | inhibition at 72 h, 0.1 µM [2] [%] | IC50 (HCT-116 [3]) [nM] | IC50 at 72 h [4] [nM] | inhibition at 72 h, 1 µM [5] [%] | selectivity ratio [6] | inhibition at 0.1 µM (HCT-116 [7]) [%] |
| --- | --- | --- | --- | --- | --- | --- | --- |
| COc1ccc(-n2cnn(CC(=O)O[C@H]3C[C@@H]4C(=CC[C@@H]5[C@@]4(C)C(=O)C[C@]4(C)[C@@H]([C@@](C)(O)C(=O)/C=C/C(C)(C)OC(C)=O)[C@H](O)C[C@@]54C)C(C)(C)C3=O)c2=O)cc1 | 83.3 | 31.4 | 44 | 33 | 70.8 | 0.75 | 64.3 |
| COc1ccc(/C=C/C(=O)O[C@@H]2C[C@@]3(C)[C@@H]4CC=C5[C@@H](C[C@H](O)C(=O)C5(C)C)[C@]4(C)C(=O)C[C@]3(C)[C@H]2[C@@](C)(O)C(=O)/C=C/C(C)(C)OC(C)=O)cc1 | 67.3 | -3.17 | – | – | 47.4 | – | 0.47 |
| CC(=O)OC(C)(C)/C=C/C(=O)[C@](C)(O)[C@H]1[C@H](OC(=O)/C=C/c2ccc(C)cc2)C[C@@]2(C)[C@@H]3CC=C4[C@@H](C[C@H](O)C(=O)C4(C)C)[C@]3(C)C(=O)C[C@]12C | 4.99 | 3.35 | – | – | 7.53 | – | 5.73 |
| CC(=O)OC(C)(C)/C=C/C(=O)[C@](C)(O)[C@H]1[C@H](O)C[C@@]2(C)[C@@H]3CC=C4[C@@H](C[C@H](OC(=O)Cn5ncn(-c6ccc(Cl)cc6)c5=O)C(=O)C4(C)C)[C@]3(C)C(=O)C[C@]12C | 84.4 | 61.3 | 63 | 31 | 70.9 | 0.49 | 69 |
| CC(=O)OC(C)(C)/C=C/C(=O)[C@](C)(O)[C@H]1[C@H](O)C[C@@]2(C)[C@@H]3CC=C4[C@@H](C[C@H](OC(=O)/C=C/c5ccc(F)cc5)C(=O)C4(C)C)[C@]3(C)C(=O)C[C@]12C | 87.6 | -3.78 | – | – | 1.62 | – | 1.53 |
| CC(=O)OC(C)(C)/C=C/C(=O)[C@](C)(O)[C@H]1[C@H](O)C[C@@]2(C)[C@@H]3CC=C4[C@@H](C[C@H](OC(=O)c5cn(-c6ccc(Br)cc6)nn5)C(=O)C4(C)C)[C@]3(C)C(=O)C[C@]12C | 93 | 0.01 | – | – | 73.6 | – | 15.6 |
| COc1ccc(-n2cc(C(=O)O[C@H]3C[C@@H]4C(=CC[C@@H]5[C@@]4(C)C(=O)C[C@]4(C)[C@@H]([C@@](C)(O)C(=O)/C=C/C(C)(C)OC(C)=O)[C@H](O)C[C@@]54C)C(C)(C)C3=O)nn2)cc1 | 92.1 | 12.6 | – | – | 73.1 | – | 49.4 |
| COc1ccc(/C=C/C(=O)O[C@H]2C[C@@H]3C(=CC[C@@H]4[C@@]3(C)C(=O)C[C@]3(C)[C@@H]([C@@](C)(O)C(=O)/C=C/C(C)(C)OC(C)=O)[C@H](OC(=O)/C=C/c5ccc(OC)cc5)C[C@@]43C)C(C)(C)C2=O)cc1 | 2.18 | -2.33 | – | – | 0.89 | – | 0.38 |
| CC(=O)OC(C)(C)/C=C/C(=O)[C@](C)(O)[C@H]1[C@H](O)C[C@@]2(C)[C@@H]3CC=C4[C@@H](C[C@H](OC(=O)c5cn(-c6ccc(C)cc6)nn5)C(=O)C4(C)C)[C@]3(C)C(=O)C[C@]12C | 88.1 | 3.68 | – | – | 72.4 | – | 27.9 |
| CC(=O)OC(C)(C)/C=C/C(=O)[C@](C)(O)[C@H]1[C@H](O)C[C@@]2(C)[C@@H]3CC=C4[C@@H](C[C@H](OC(=O)c5cn(-c6ccc(Cl)cc6)nn5)C(=O)C4(C)C)[C@]3(C)C(=O)C[C@]12C | 94 | 12.5 | – | – | 72.6 | – | 35.1 |
| COc1ccc(/C=C/C(=O)O[C@H]2C[C@@H]3C(=CC[C@@H]4[C@@]3(C)C(=O)C[C@]3(C)[C@@H]([C@@](C)(O)C(=O)/C=C/C(C)(C)OC(C)=O)[C@H](O)C[C@@]43C)C(C)(C)C2=O)cc1 | 79.4 | -9.08 | – | – | 67.3 | – | 5.28 |
| CC(=O)OC(C)(C)/C=C/C(=O)[C@](C)(O)[C@H]1[C@H](OC(=O)/C=C/c2ccc(F)cc2)C[C@@]2(C)[C@@H]3CC=C4[C@@H](C[C@H](O)C(=O)C4(C)C)[C@]3(C)C(=O)C[C@]12C | 1.19 | 7.68 | – | – | 67 | – | 5.23 |
| CC(=O)OC(C)(C)/C=C/C(=O)[C@](C)(O)[C@H]1[C@H](O)C[C@@]2(C)[C@@H]3CC=C4[C@@H](C[C@H](OC(=O)c5cccs5)C(=O)C4(C)C)[C@]3(C)C(=O)C[C@]12C | 95.2 | 4.77 | – | – | 75.2 | – | 3.99 |
| CC(=O)OC(C)(C)/C=C/C(=O)[C@](C)(O)[C@H]1[C@H](O)C[C@@]2(C)[C@@H]3CC=C4[C@@H](C[C@H](OC(=O)/C=C/c5ccccc5)C(=O)C4(C)C)[C@]3(C)C(=O)C[C@]12C | 86.8 | 1.72 | – | – | 72.7 | – | 1.46 |
| CC(=O)OC(C)(C)/C=C/C(=O)[C@](C)(O)[C@H]1[C@H](OC(=O)/C=C/c2ccccc2)C[C@@]2(C)[C@@H]3CC=C4[C@@H](C[C@H](O)C(=O)C4(C)C)[C@]3(C)C(=O)C[C@]12C | 16.5 | 1.86 | – | – | 13.2 | – | 2.73 |
| COc1cc(-n2cnn(CC(=O)O[C@H]3C[C@@H]4C(=CC[C@@H]5[C@@]4(C)C(=O)C[C@]4(C)[C@@H]([C@@](C)(O)C(=O)/C=C/C(C)(C)OC(C)=O)[C@H](O)C[C@@]54C)C(C)(C)C3=O)c2=O)cc(OC)c1OC | 84.2 | 66 | 37 | 30 | 70 | 0.81 | 78 |
| CC(=O)OC(C)(C)/C=C/C(=O)[C@](C)(O)[C@H]1[C@H](OC(=O)/C=C/c2ccccc2)C[C@@]2(C)[C@@H]3CC=C4[C@@H](C[C@H](OC(=O)/C=C/c5ccccc5)C(=O)C4(C)C)[C@]3(C)C(=O)C[C@]12C | 9.26 | 0.97 | – | – | 11.7 | – | 3.56 |
| CC(=O)OC(C)(C)/C=C/C(=O)[C@](C)(O)[C@H]1[C@H](O)C[C@@]2(C)[C@@H]3CC=C4[C@@H](C[C@H](OC(=O)Cn5ncn(-c6ccc(C)cc6)c5=O)C(=O)C4(C)C)[C@]3(C)C(=O)C[C@]12C | 82.1 | 36.5 | 121 | 40 | 68.2 | 0.33 | 72.5 |
| CC(=O)OC(C)(C)/C=C/C(=O)[C@](C)(O)[C@H]1[C@H](O)C[C@@]2(C)[C@@H]3CC=C4[C@@H](C[C@H](OC(=O)Cn5ncn(-c6ccccc6)c5=O)C(=O)C4(C)C)[C@]3(C)C(=O)C[C@]12C | 82.2 | 59.6 | 51 | 80 | 71.6 | 1.57 | 67.9 |
| CC(=O)OC(C)(C)/C=C/C(=O)[C@](C)(O)[C@H]1[C@H](O)C[C@@]2(C)[C@@H]3CC=C4[C@@H](C[C@H](OC(=O)c5cn(-c6ccc(F)cc6)nn5)C(=O)C4(C)C)[C@]3(C)C(=O)C[C@]12C | 87.4 | 36.4 | 31 | 80 | 71.9 | 2.58 | 65.3 |
| CC(=O)OC(C)(C)/C=C/C(=O)[C@](C)(O)[C@H]1[C@H](O)C[C@@]2(C)[C@@H]3CC=C4[C@@H](C[C@H](OC(=O)c5ccco5)C(=O)C4(C)C)[C@]3(C)C(=O)C[C@]12C | 83.5 | 20 | – | – | 69.2 | – | 22.1 |
| CC(=O)OC(C)(C)/C=C/C(=O)[C@](C)(O)[C@H]1[C@H](OC(=O)/C=C/c2ccc(F)cc2)C[C@@]2(C)[C@@H]3CC=C4[C@@H](C[C@H](OC(=O)/C=C/c5ccc(F)cc5)C(=O)C4(C)C)[C@]3(C)C(=O)C[C@]12C | 7.98 | -13.1 | – | – | 6.72 | – | 2.07 |
| CC(=O)OC(C)(C)/C=C/C(=O)[C@](C)(O)[C@H]1[C@H](OC(=O)/C=C/c2ccc(C)cc2)C[C@@]2(C)[C@@H]3CC=C4[C@@H](C[C@H](OC(=O)/C=C/c5ccc(C)cc5)C(=O)C4(C)C)[C@]3(C)C(=O)C[C@]12C | 4.21 | -13.3 | – | – | 8.01 | – | 0.65 |
| CC(=O)OC(C)(C)/C=C/C(=O)[C@](C)(O)[C@H]1[C@H](O)C[C@@]2(C)[C@@H]3CC=C4[C@@H](C[C@H](OC(=O)c5cccnc5)C(=O)C4(C)C)[C@]3(C)C(=O)C[C@]12C | 82.4 | 10.1 | – | – | 68.3 | – | 19.9 |
| CC(=O)OC(C)(C)/C=C/C(=O)[C@](C)(O)[C@H]1[C@H](O)C[C@@]2(C)[C@@H]3CC=C4[C@@H](C[C@H](OC(=O)/C=C/c5ccc(C)cc5)C(=O)C4(C)C)[C@]3(C)C(=O)C[C@]12C | 55.6 | 1.88 | – | – | 44.1 | – | 0.24 |
